Measured values: patent publication US20100144736A1, “NOVEL BIPHENYL THIO-UREA DERIVATIVES USEFUL AS POTASSIUM CHANNEL MODULATORS” (NeuroSearch A/S, priority 2006, published 2010)

Target: T1, BK channels heterologously expressed in Xenopus laevis oocytes (Homo sapiens, UniProt Q12791)
T1 construct: expressed in transfected cells; host or cells: Xenopus laevis oocytes
Test: BK channel opening activity, two-electrode voltage clamp in Xenopus laevis oocytes
Format: cell-based
Details: Compound added in increasing concentrations, 1, 3 and 10 μM; step from −40 mV to +30 mV; FIG. 1
Description: The electrical current through the BK channel is measured conventional two-electrode voltage clamp. BK current is activated by repeated step protocols. In brief, this protocol goes from a resting membrane potential of −40 mV lasting for 5 s to a depolarised step to +30 mV lasting for 1 s. The protocol was repeated continuously.
Having reached a stable current level, Compound 1 was added in increasing concentrations. Between each application compound was washed out until baseline current activity was obtained.

T1 sequence (Q12791 whole entry): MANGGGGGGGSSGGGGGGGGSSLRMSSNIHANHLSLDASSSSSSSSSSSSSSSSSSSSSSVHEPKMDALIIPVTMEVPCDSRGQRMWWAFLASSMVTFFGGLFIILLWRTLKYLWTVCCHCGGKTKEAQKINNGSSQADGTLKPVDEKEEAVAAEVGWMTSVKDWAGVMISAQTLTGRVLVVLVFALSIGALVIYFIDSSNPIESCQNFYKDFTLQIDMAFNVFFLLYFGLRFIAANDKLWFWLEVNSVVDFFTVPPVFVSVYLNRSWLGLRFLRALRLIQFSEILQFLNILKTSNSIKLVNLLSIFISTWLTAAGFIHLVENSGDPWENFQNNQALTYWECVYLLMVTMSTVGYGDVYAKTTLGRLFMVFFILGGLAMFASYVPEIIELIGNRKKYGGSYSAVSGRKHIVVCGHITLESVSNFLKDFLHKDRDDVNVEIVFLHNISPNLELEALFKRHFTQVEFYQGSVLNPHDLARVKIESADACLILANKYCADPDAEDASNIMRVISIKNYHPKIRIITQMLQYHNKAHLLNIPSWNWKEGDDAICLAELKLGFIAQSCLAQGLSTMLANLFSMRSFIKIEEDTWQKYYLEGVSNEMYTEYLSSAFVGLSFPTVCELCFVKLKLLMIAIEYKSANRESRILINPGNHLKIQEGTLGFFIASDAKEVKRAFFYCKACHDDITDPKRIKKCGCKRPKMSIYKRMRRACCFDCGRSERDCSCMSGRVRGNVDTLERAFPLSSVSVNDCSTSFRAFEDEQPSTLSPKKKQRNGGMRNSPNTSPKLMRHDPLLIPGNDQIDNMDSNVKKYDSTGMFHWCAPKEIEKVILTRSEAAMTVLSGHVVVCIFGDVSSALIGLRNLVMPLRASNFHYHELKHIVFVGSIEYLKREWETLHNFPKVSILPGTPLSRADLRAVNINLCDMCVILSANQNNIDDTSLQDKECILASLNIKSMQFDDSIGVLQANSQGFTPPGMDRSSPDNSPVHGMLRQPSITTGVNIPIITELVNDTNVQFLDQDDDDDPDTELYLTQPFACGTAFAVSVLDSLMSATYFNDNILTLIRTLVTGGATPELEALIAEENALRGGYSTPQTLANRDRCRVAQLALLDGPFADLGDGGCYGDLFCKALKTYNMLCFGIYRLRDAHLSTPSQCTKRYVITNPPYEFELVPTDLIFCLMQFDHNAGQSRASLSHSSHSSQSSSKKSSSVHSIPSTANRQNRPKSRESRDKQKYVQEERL

FC(F)(F)c1cc(NC(=S)Nc2ccc(Br)cc2-c2nnn[nH]2)cc(C(F)(F)F)c1 [Compound 1, 1-(3,5-Bis-trifluoromethyl-phenyl)-3-[4-bromo-2-(1H-tetrazol-5-yl)-phenyl]-thiourea]
current activated by depolarisation (BK current): marked increase
